# Experimental data: patent publication US9408871B2, “Methods for inhibiting complement activation and uses thereof” (THE UNIVERSITY OF BRITISH COLUMBIA, priority 2013, dated 2016)
# Experiments:
# [1] = system: total complement-mediated hemolytic activity; assay: total complement-mediated hemolytic activity assay (4.5% NHS, rabbit erythrocytes); format: cell-based, human; conditions: rRBC, 30 min, read-out: IC50 (concentration required to achieve half maximal inhibition of lysis), total hemolytic activity
# Text: Erythrocyte lysis assays were used to measure complement-mediated hemolytic activity. Erythrocyte (RBC) lysis assays as previously described^18,37 were used to measure complement activity. For alternative pathway assays and for total hemolytic activity assays, unsensitized rabbit erythrocytes were used. Chicken erythrocytes were used for the terminal pathway assays.
# Erythrocytes were washed three times in GVB with the reaction buffers as indicated, and counted using the Advia 120 Hematology System from Siemens (Siemens, Erlangen, Germany). Reactions in 300 μL were allowed to proceed for 30 min at 37° C., after which unlysed cells were pelleted by centrifugation at 600×g. Erythrocyte lysis, reflected by the released hemoglobin in the supernatant, was quantified by measuring the absorbance at 405 nm using the Mithras LB 940 microplate reader from Berthold Technologies (Bad Wildbad, Germany). Percent lysis was determined relative to the control of 100% lysis with H2O. […]
# For total hemolytic activity assays, normal human serum (NHS) (4.5%), polyphosphate, and rabbit erythrocytes (rRBC) (6.0×10^7 cells/mL) were added sequentially to initiate lysis. […] Increasing absorbance corresponds to increasing hemoglobin release from lysed red blood cells. The linear region of the curve was determined to be between 20-80% lysis, corresponding to 2.5-4.5% serum. […]
# [2] = system: C5b,6, C5, C6, C7, thrombin; assay: differential scanning fluorimetry (DSF), all proteins tested; format: binding; conditions: 1 mM
# Procedure: For DSF, 25 μL reaction mixes consisting of 0.4 mg/mL protein (0.14 mg/mL for C5b,6), varying concentrations of polyphosphate diluted in HBS (20 mM HEPES, 150 mM NaCl, pH 7.4), and 5× SYPRO Orange were loaded into MicroAmp Fast Optical 96-well Reaction Plates (Applied Biosystems). Samples were heat denatured in an Applied Biosystems StepOnePlus Real-Time PCR System using a ramp configuration starting at 25° C. and increasing at 1 C.° min^−1 to 95° C. Fluorescence (in relative fluorescence units, RFU) was measured every 30 seconds^38. Data for each curve were normalized to the maximum and the minimum of the curve.
# In another approach, differential scanning fluorimetry (DSF) was used to determine the thermal stability of the complement proteins in the presence and absence of polyphosphate. This technique involves heat-denaturing proteins and exposing internal hydrophobic regions to the aqueous environment, which are detected by the fluorescent dye SYPRO Orange^38. Interactions between a protein and a binding partner often change the thermal stability of the protein, observed as a shift in the melting (denaturation) curve. C5b,6, C5, C6, and C7 were individually incubated with a range of concentrations of polyphosphate>1000 and relative fluorescence (RFU) was measured as the proteins were thermally denatured. An increase in RFU indicates protein denaturation. […]
# [3] = system: choroidal endothelial cells (CEC; RF/6A); assay: protection against H2O2 oxidative stress, microscopy; format: cell-based; conditions: 100 μM to 1000 μM, H2O2 24 hours
# Procedure: Using cultured cell lines as models of choroidal endothelial cells (CEC; RF/6A)^73 and retinal pigmented epithelial cells (ARPE-19)^74, we tested whether polyphosphate (polyP) could protect against stress-induced alterations in cell survival and deposition of terminal complement activation products (C5b-9).
# CEC (FIG. 21) or ARPE-19 (FIG. 22) cells were grown to ˜80% confluence in DMEM+10% serum, and then incubated with varying concentration of hydrogen peroxide (H2O2) for 24 hours in the presence of varying concentrations of polyP1000.
smiles,measurement,setting,value
"O=P(O)(O)O [P1, Orthophosphate]",IC50,[1],~3.5 mM
same,effect on thermal stability (DSF),[2],had no effect on the thermal stability
same,"protective effect against H2O2 oxidative stress, CEC",[3],No effect was observed
